For experiment [1], the system named is NB4 cells. Nature of the experiment: Gene expression in NB4 / myeloid cells. In kind it is cell-based. An excerpt:
(§1) In NB4 cells, PICLAMILAST accelerates the process of morphological granulocytic maturation and enhances the ATRA-dependent induction of specific differentiation markers such as NBT-reductase (NBTR) as well as CD11b. PICLAMILAST not only enhances, but also accelerates the process of granulocytic maturation set in motion by ATRA in acute myelogenous leukemia cells, reducing the time necessary to expose cells to ATRA to obtain maximal differentiation. […] PICLAMILAST exerts differential effects on a number of transcriptional factors involved in the process of leukemic cell maturation triggered by ATRA. […] The PICLAMILAST dependent enhancement of the ATRA-dependent induction of NBT-R is suppressed by the cAMP antagonist, Rp-8Br-cAMP, and the specific PKA inhibitor H-89. […] This phenomenon is more evident when cells are treated with combinations of ATRA and the PDE4 inhibitor. […] This altogether could represent a clinically relevant finding as it may represent a useful strategy to increase the therapeutic index of ATRA by decreasing its local and systemic toxicity.

Experiment [2] concerns NB4 cells. Nature of the experiment: Intracellular cAMP and cAMP-dependent protein kinase (PKA) amounts in NB4 cells. The experiment is classed as cell-based. The conditions noted are these: versus basal conditions.
Excerpt: as §1

Another experiment deals with U937 blasts. Briefly: ATRA induced granulocytic maturation and growth inhibition of U937 blasts. To be noted: together with ATRA. In kind it is cell-based.
Another experiment has as its system cEBPepsilon. Nature of the experiment: Upregulation of cEBPepsilon. The conditions noted are these: in combination with the retinoid. The experiment is classed as cell-based.
Excerpt: as §1

The subject of a further experiment is STAT1. Briefly: Amounts and tyrosine phosphorylation of STAT1. The conditions noted are these: in combination with the retinoid. In kind it is cell-based.
Excerpt: as §1

In another experiment the test system is cEBPalpha. Nature of the experiment: Amounts of cEBPalpha in leukemic cell maturation triggered by ATRA. In kind it is cell-based. To be noted: in combination with the retinoid.
Excerpt: as §1

The subject of the next experiment is HL-60 blasts. Briefly: ATRA induced granulocytic maturation and growth inhibition of HL-60 blasts. The experiment is classed as cell-based. To be noted: together with ATRA.
For experiment [3], the system named is retinoic acid receptor, RARalpha. Nature of the experiment: Ligand-dependent transcriptional activity and phosphorylation of RARalpha. In kind it is cell-based.
Excerpt: as §1

In experiment [4] the test system is CREBP transcriptional factor. Nature of the experiment: Phosphorylation state of CREBP in NB4 cells. In kind it is cell-based.
Excerpt: as §1

The test system of a further experiment is NB4 blasts. Briefly: ATRA induced granulocytic maturation and growth inhibition of NB4 blasts. In kind it is cell-based. To be noted: for PICLAMILAST dependent enhancement of the ATRA-dependent induction of NBT-R: added to PICLAMILAST and ATRA.
Excerpt: as §1

Experiment [5] relates to chronic lymphocytic leukemia (CLL) B-lymphocytes. To be noted: in vitro; cited from earlier work.

Data on 5 molecules can be found in US20060148804A1, “Pde4 inhibitors for the treatment of neoplasms of lymphoid cells” (priority 2003, published 2006).

In the case of `COc1ccc(C(=O)Nc2c(Cl)cncc2Cl)cc1OC1CCCC1` [PICLAMILAST, N-(3,5-dichloropyrid-4-yl)-3-cyclopentyloxy-4-methoxybenzamide], the “expression of cAMP- and CREBP-dependent genes, such as vinculin” value in the experiment on NB4 cells [1] (NB4 cells) was “does not modulate”. The “expression of numerous ATRA-dependent genes, including cathepsin D and syaloadhesin” value in the experiment with NB4 cells [1] (with ATRA) is “enhancing action”. For the same molecule, in the experiment with NB4 cells [2], the “amounts of cAMP-dependent protein kinase (PKA)” value is “significant increase” and the “amounts of intracellular cAMP” value is “significant increase”. Moreover, the “growth inhibitory and cyto-differentiating activities of all trans retinoic acid (ATRA)” value in the experiment with U937 blasts is “potentiates”. The “upregulation of cEBPepsilon” value in the experiment with cEBPepsilon is reported as “no significant effect”. In addition, the “amounts and activation state (tyrosine phosphorylation) of STAT1” value with STAT1 was “causes an increase”. In the experiment with cEBPalpha, the “amounts of cEBPalpha” value is “causes an increase”. Besides, the “growth inhibitory and cyto-differentiating activities of all trans retinoic acid (ATRA)” value in the experiment on HL-60 blasts is “potentiates”. In addition, in experiment [3], the “PKA-dependent phosphorylation of RARalpha” value was “activated”. In addition, the “ligand-dependent transcriptional activity of RARalpha” value in experiment [3] (in combination with the retinoid) was “enhances”. The “phosphorylation state of the cAMP dependent CREBP transcriptional factor” value in experiment [4] is listed as “down-regulatory action”. In addition, in the experiment with NB4 blasts (NB4 blasts, together with ATRA), the “growth inhibitory and cyto-differentiating activities of all trans retinoic acid (ATRA)” value is recorded as “potentiates”. For the same molecule, the “process of morphological granulocytic maturation” value in the experiment with NB4 blasts (NB4 cells) is reported as “accelerates”. In the experiment with NB4 blasts (NB4 cells, with ATRA), the “ATRA-dependent induction of CD11b” value is “enhances” and the “ATRA-dependent induction of NBT-reductase (NBTR)” value is given as “enhances”. In addition, in the experiment with NB4 blasts (acute myelogenous leukemia cells), the “time necessary to expose cells to ATRA to obtain maximal differentiation” value is reported as “reducing”. In the experiment with NB4 blasts (acute myelogenous leukemia cells, with ATRA), the “growth inhibitory effect of the retinoid” value was “increases the growth inhibitory effect of the retinoid in an additive fashion”.
As for `CC1=C(/C=C/C(C)=C/C=C/C(C)=C/C(=O)O)C(C)(C)CCC1` [ATRA, all trans retinoic acid], in the experiment on NB4 cells [2], the “amounts of cAMP-dependent protein kinase (PKA)” value was “Neither basal nor PICLAMILAST-induced levels of cAMP and PKA are modulated”; the “amounts of intracellular cAMP” value was “Neither basal nor PICLAMILAST-induced levels of cAMP and PKA are modulated”.
Consider `O=S(=O)(NCCNC/C=C/c1ccc(Br)cc1)c1cccc2cnccc12` [H-89], for which the “ATRA-dependent genes whose expression is super-induced by the PDE4 inhibitor” value in the experiment on NB4 cells [1] (added to PICLAMILAST and ATRA) is given as “does not have the same effect on all”. Besides, in the experiment with NB4 blasts, the “PICLAMILAST dependent enhancement of the ATRA-dependent induction of NBT-R” value is listed as “suppressed”.
`Cn1c(=O)c2[nH]cnc2n(C)c1=O` [Theophylline]: in experiment [5], the “apoptosis in CLL B-lymphocytes” value was “induce apoptosis”.
Regarding `Nc1ncnc2c1nc(Br)n2C1OC2COP(O)(=S)OC2C1O` (stereo not drawn) [Rp-8Br-cAMP], the “PICLAMILAST dependent enhancement of the ATRA-dependent induction of NBT-R” value in the experiment with NB4 blasts was “suppressed”.
